Measured values reported in US11317630B2, “Method of controlling weeds” (Sumitomo Chemical Company, Limited, priority 2018, dated 2022).

What was measured:
Format in all cases: in vivo
[1] = test system: Amaranthus palmeri having an Arg128Gly, Arg128Met, Gly210 deletion or Gly399Ala mutation in PPO2, waterhemp having a Gly210 deletion mutation in PPO2, ragweeds …; assay: Herbicidal effect, foliar treatment with drift-reducing nozzle 21 days after sowing (Example 3); conditions: foliar treatment 21 days after sowing, TTI11004 nozzle, 10, 20, 40, 80, or 160 g/ha, 200 L/ha, greenhouse, examined 14 days after treatment
Source text: Amaranthus palmeri having an Arg128Gly mutation in PPO2, Amaranthus palmeri having an Arg128Met mutation in PPO2, Amaranthus palmeri having a Gly210 deletion mutation in PPO2, Amaranthus palmeri having a Gly399Ala mutation in PPO2, waterhemp having a Gly210 deletion mutation in PPO2, ragweeds having Arg128Leu in PPO02, and a Roundup Ready 2 Xtend soybean are sown in a plastic pot. Then, the weeds and soybean are cultivated in a greenhouse and a compound X is applied to perform foliar treatment by using a drift-reducing nozzle (TTI11004 manufactured by Teejet Company) 21 days after sowing. The amount of the compound X to be applied is 10, 20, 40, 80, or 160 g/ha and the amount of spray dilution is 200 L/ha. Then, the weeds and soybean are further cultivated in a greenhouse to examine the effects on the weeds and phytotoxic effects on the soybean 14 days after treatment.

[2] = test system: Amaranthus palmeri having an Arg128Gly, Arg128Met, Gly210 deletion or Gly399Ala mutation in PPO2, waterhemp having a Gly210 deletion mutation in PPO2, ragweeds …; assay: Herbicidal effect, soil application with drift-reducing nozzle 7 days before sowing soybean (Example 1); conditions: soil surface, TTI11004 nozzle, 10, 20, 40, 80, or 160 g/ha, 200 L/ha, greenhouse, soybean sown after 7 days, examined after 14 days
Source text: Amaranthus palmeri having an Arg128Gly mutation in PPO2, Amaranthus palmeri having an Arg128Met mutation in PPO2, Amaranthus palmeri having a Gly210 deletion mutation in PPO2, Amaranthus palmeri having a Gly399Ala mutation in PPO2, waterhemp having a Gly210 deletion mutation in PPO2, and ragweeds having Arg128Leu in PPO2 are sown in a plastic pot. On the same day, a compound X is applied to the surface of soil by using a drift-reducing nozzle (TTI11004 manufactured by Teejet Company). The amount of the compound X to be applied is 10, 20, 40, 80, or 160 g/ha and the amount of spray dilution is 200 L/ha. Then, these weeds are cultivated in a greenhouse and Roundup Ready 2 Xtend soybean seeds are sown after 7 days, to examine the effects on the weeds and phytotoxic effects on the soybean after 14 days.

[3] = test system: Amaranthus palmeri having an Arg128Gly, Arg128Met, Gly210 deletion or Gly399Ala mutation in PPO2, waterhemp having a Gly210 deletion mutation in PPO2, ragweeds …; assay: Herbicidal effect, soil application with drift-reducing nozzle on the day of sowing weeds and soybean (Example 2); conditions: soil surface on day of sowing, TTI11004 nozzle, 10, 20, 40, 80, or 160 g/ha, 200 L/ha, greenhouse, examined after 21 days
Source text: Amaranthus palmeri having an Arg128Gly mutation in PPO2, Amaranthus palmeri having an Arg128Met mutation in PPO2, Amaranthus palmeri having a Gly210 deletion mutation in PPO2, Amaranthus palmeri having a Gly399Ala mutation in PPO2, waterhemp having a Gly210 deletion mutation in PPO2, ragweeds having Arg128Leu in PPO02, and a Roundup Ready 2 Xtend soybean are sown in a plastic pot. On the same day, a compound X is applied to the surface of soil by using a drift-reducing nozzle (TTI11004 manufactured by Teejet Company). The amount of the compound X to be applied is 10, 20, 40, 80, or 160 g/ha and the amount of spray dilution is 200 L/ha. Then, the weeds and soybean are cultivated in a greenhouse to examine the effects on the weeds and phytotoxic effects on the soybean after 21 days.

Measured: effects on the weeds

CCOC(=O)COc1ncccc1Oc1cc(-n2c(=O)cc(C(F)(F)F)n(C)c2=O)c(F)cc1Cl [compound X, Ethyl [3-[2-chloro-4-fluoro-5-(l-methyl-6-trifluoromethyl-2,4-dioxo-1,2,3,4-tetrahydropyrimidine-3-yl)phenoxy]-2-pyridyloxy]acetate]
valuable effect: all assays above
